Test results as given in patent publication US20220056018A1, “SREBP INHIBITORS COMPRISING A THIOPHENE CENTRAL RING” (Capulus Therapeutics, LLC, priority 2019, published 2022).

Experiments:
[1] = Stability in human liver microsomes; type: in vitro ADME; details: 37° C., NADPH
Procedure: Half-Life Human Microsomes:
(§1) Compounds were evaluated for stability in human liver microsomes. A 10 mM stock solution of the compound being evaluated was prepared in DMSO and diluted with water:acetonitrile (1:1) to a concentration of 1 mM. A working concentration of 100 μM was prepared by further dilution with water:acetonitrile (1:1). To make the preincubation mixture, 2.5 μL of the diluted compound was combined with 75 μL of human liver microsomes at 3.33 mg/mL, and 85 μL of 100 mM potassium phosphate buffer, and this mixture was pre-incubated for 10 min at 37° C. To make the 60 minute mixture without cofactor, 32.5 μL of the preincubation mixture was combined with 17.5 μL of 100 mM potassium phosphate buffer and incubated for 60 min at 37° C. To make the 0 min sample with cofactor (NADPH), 16.25 μL of the preincubation mixture was combined with 200 μL of acetonitrile containing internal standard and 8.75 μL of cofactor (NADPH). To make the incubation mixture, 62 μL of cofactor (2.85 mM) was combined with the remaining incubation mixture, and incubated for 60 min at 37° C. To prepare the sample mixture to be evaluated, 25 μL incubation mixture was combined with 200 μL of acetonitrile containing internal standard and vortexed for 5 min at 1200 rpm, then centrifuged for 10 min at 4000 rpm. The supernatant was diluted 2 fold with water and injected on LC-MS/MS. The sample mixture was evaluated by LC-MS/MS using 10 mM ammonium acetate with 0.100 FA as the aqueous mobile phase, and methanol as the organic mobile phase.

[2] = Stability in mouse liver microsomes; type: in vitro ADME
Procedure: as §1
Half-Life Mouse Microsomes:
Compounds were evaluated in mouse liver microsomes following a similar procedure as described above for human liver microsomes. A similar procedure could be used to evaluate compounds in rat liver microsomes.

SREBP = experiment: Reporter Screening Assay (SRE-luciferase reporter, HepG2); type: cell-based; details: Homo sapiens; SRE-luciferase reporter HepG2 cells, 24 hours, 0.01 uM to 10 uM; read-out: I: Reporter Screening Assay (Ave EC50 (nM))
Procedure: Reporter Screening Assay: This assay was used to evaluate the effect on transcriptional activity SREBP of selected compounds using an SRE-luciferase reporter construct. On day 1, 10,000 cells were seeded in a 96 well (white) plate as per the plate map in Growth media without antibiotics. Cells were incubated at 37° C. for 8 hours. After 8 hours, cells were washed with DPBS for complete removal of FBS. DPBS was completely removed and Growth media was replaced with phenol free treatment medium (90 μl) with different FBS concentrations. The cells were then incubated at 37° C. for 24 hours with varying doses (0.01 uM to 10 uM) of compounds. Then a Luciferase assay was performed.
Reagents for performing Luciferase assay were stored at −20° C. To a tube of lyophilized assay substrate was added 1 mL Substrate Solvent and mixed well. The Substrate tube after reconstitution was covered with aluminum foil so as to keep it protected from light. The assay buffer was thawed to room temperature. To 20 mL Assay Buffer was added 200 μL of reconstituted 100× Substrate and mixed well. The reconstituted substrate as well as the assay solution (buffer+substrate) was protected from light throughout the procedure by keeping it covered with aluminum foil. Using a multi-channel pipette, 100 μL Assay Solution (buffer+substrate) was added directly to each sample well in Plate 1, which was incubated for 30 min (plate was covered with aluminum foil). After 30 min incubation, the plate was read for total luminescence. Each well was read for 2 seconds in a plate luminometer. (Microplate reader Envision Microplate reader from Perkin Elmer). Precaution was taken to incubate plate exactly for 30 min prior to reading on the plate reader.
SREBPv1 Reporter cell line: HepG2—#32251. Growth Medium: MEM (Corning 10-010), 10% FBS, 1% GlutaMax (Invitrogen Catalog #35050061), […] (Invitrogen Catalog # A1113803) and 1% Penicillin-Streptomycin (Pen-Strep). Treatment Media: Phenol-free MEM (Invitrogen Catalog #51200-038) and 1% GlutaMax (Invitrogen Catalog #35050061). Luciferase Assay: LightSwitch Luciferase Assay Kit (Catalog #32032). LDH assay: Pierce LDH Cytotoxicity Assay Kit (Catalog # SD249616).

| Compound | percent of compound remaining after 60 min in human liver microsomes [1] | percent parent remaining after 60 min in liver microsomes [2] | EC50 (SREBP) |
| --- | --- | --- | --- |
| CC(C)OC(=O)Nc1ccc(-c2cc(-c3ccnc(C4CC4)c3)cs2)c(Cl)c1 [Compound I-8966, Isopropyl (3-chloro-4-(4-(2-cyclopropylpyridin-4-yl)thiophen-2-yl)phenyl)carbamate] | +++ (>60.1 = +++) | +++ (>60.1 = +++) | < 249 nM |
| CC(C)OC(=O)Nc1ccc(-c2cc(-c3ccnc(C4(CO)CC4)c3)cs2)c(Cl)c1 [Compound I-8980, Isopropyl (3-chloro-4-(4-(2-(1-(hydroxymethyl)cyclopropyl)pyridin-4-yl)thiophen-2-yl)phenyl)carbamate] | +++ (>60.1 = +++) | +++ (>60.1 = +++) | < 249 nM |
| CS(=O)(=O)Nc1ccc(-c2cc(-c3ccnc(C4(CO)CC4)c3)cs2)c(Cl)c1 [Compound I-9002, N-(3-chloro-4-(4-(2-(1-(hydroxymethyl)cyclopropyl)pyridin-4-yl)thiophen-2-yl)phenyl)methanesulfonamide] | +++ (>60.1 = +++) | +++ (>60.1 = +++) | < 249 nM |
| CN(c1ccc(-c2cc(-c3ccnc(C4CC4)c3)cs2)c(Cl)c1)S(C)(=O)=O [Compound I-9037, N-(3-chloro-4-(4-(2-cyclopropylpyridin-4-yl)thiophen-2-yl)phenyl)-N-methylmethanesulfonamide] | +++ (>60.1 = +++) | +++ (>60.1 = +++) | < 249 nM |
| CN(C(=O)OC1CC1)c1ccc(-c2cc(-c3ccnc(C4CC4)c3)cs2)c(Cl)c1 [Compound I-9038, cyclopropyl (3-chloro-4-(4-(2-cyclopropylpyridin-4-yl)thiophen-2-yl)phenyl)(methyl)carbamate] | +++ (>60.1 = +++) | +++ (>60.1 = +++) | < 249 nM |
| CC(C)(C#N)c1cc(-c2csc(-c3ccc(NS(C)(=O)=O)cc3Cl)c2)ccn1 [Compound I-9039, N-(3-chloro-4-(4-(2-(2-cyanopropan-2-yl)pyridin-4-yl)thiophen-2-yl)phenyl)methanesulfonamide] | +++ (>60.1 = +++) | +++ (>60.1 = +++) | > 500 nM |
| CN(C(=O)OC1CC1)c1ccc(-c2cc(-c3ccnc(C4(CO)CC4)c3)cs2)c(Cl)c1 [Compound I-9042, Cyclopropyl (3-chloro-4-(4-(2-(1-(hydroxymethyl)cyclopropyl)pyridin-4-yl)thiophen-2-yl)phenyl)(methyl)carbamate] | ++ (30.1-60 = ++) | +++ (>60.1 = +++) | < 249 nM |
| CC(C)OC(=O)Nc1ccc(-c2cc(-c3ccnc(CC(C)(C)O)c3)cs2)c(Cl)c1 [Compound I-9051, isopropyl (3-chloro-4-(4-(2-(2-hydroxy-2-methylpropyl)pyridin-4-yl)thiophen-2-yl)phenyl)carbamate] | +++ (>60.1 = +++) | +++ (>60.1 = +++) | > 500 nM |
| CN(c1ccc(-c2cc(-c3ccnc(C4(CO)CC4)c3)cs2)c(Cl)c1)S(C)(=O)=O [Compound I-9056, N-(3-chloro-4-(4-(2-(1-(hydroxymethyl)cyclopropyl)pyridin-4-yl)thiophen-2-yl)phenyl)-N-methylmethanesulfonamide] | ++ (30.1-60 = ++) | +++ (>60.1 = +++) | < 249 nM |

The next lines start with the values.

| percent of compound remaining after 60 min in human liver microsomes [1] | percent parent remaining after 60 min in liver microsomes [2] | EC50 (SREBP) | Compound |
| --- | --- | --- | --- |
| +++ (>60.1 = +++) | +++ (>60.1 = +++) | 250 to 500 nM | CC(C)OC(=O)Nc1ccc(-c2cc(-c3ccnc(C(C)(C)CO)c3)cs2)c(Cl)c1 [Compound I-8907, Isopropyl (3-chloro-4-(4-(2-(1-hydroxy-2-methylpropan-2-yl)pyridin-4-yl)thiophen-2-yl)phenyl)carbamate] |
| +++ (>60.1 = +++) | ++ (30.1-60 = ++) | 250 to 500 nM | CC(C)(CO)c1cc(-c2csc(-c3ccc(NC(=O)OC4CC4)cc3Cl)c2)ccn1 [Compound I-8918, Cyclopropyl (3-chloro-4-(4-(2-(1-hydroxy-2-methylpropan-2-yl)pyridin-4-yl)thiophen-2-yl)phenyl)carbamate] |
| ++ (30.1-60 = ++) | +++ (>60.1 = +++) | < 249 nM | CC(C)(CO)c1cc(-c2csc(-c3ccc(NC(=O)N4CCC(O)CC4)cc3Cl)c2)ccn1 [Compound I-8926, N-(3-chloro-4-(4-(2-(1-hydroxy-2-methylpropan-2-yl)pyridin-4-yl)thiophen-2-yl)phenyl)-4-hydroxypiperidine-1-carboxamide] |
| ++ (30.1-60 = ++) | +++ (>60.1 = +++) | 250 to 500 nM | CC(C)(CO)c1cc(-c2csc(-c3ccc(N4CCOC4=O)cc3Cl)c2)ccn1 [Compound I-8939, 3-(3-chloro-4-(4-(2-(1-hydroxy-2-methylpropan-2-yl)pyridin-4-yl)thiophen-2-yl)phenyl)oxazolidin-2-one] |
| + (0-30 = +) | ++ (30.1-60 = ++) | < 249 nM | CC(C)(CO)c1cc(-c2csc(-c3ccc(NS(=O)(=O)C(F)(F)F)cc3Cl)c2)ccn1 [Compound I-8940, N-(3-chloro-4-(4-(2-(1-hydroxy-2-methylpropan-2-yl)pyridin-4-yl)thiophen-2-yl)phenyl)-1,1,1-trifluoromethanesulfonamide] |
| ++ (30.1-60 = ++) | ++ (30.1-60 = ++) | < 249 nM | CC(C)NS(=O)(=O)Nc1ccc(-c2cc(-c3ccnc(C(C)(C)CO)c3)cs2)c(Cl)c1 [Compound I-8941] |
| +++ (>60.1 = +++) | +++ (>60.1 = +++) | > 500 nM | CC(C)(CN)c1cc(-c2csc(-c3ccc(NS(C)(=O)=O)cc3Cl)c2)ccn1 [Compound I-9049, N-(4-(4-(2-(1-amino-2-methylpropan-2-yl)pyridin-4-yl)thiophen-2-yl)-3-chlorophenyl)methanesulfonamide] |
